Tested on: not given
Test: not given
Conditions: not given

melting point [°C]	Compound
155 to 156	Cc1nccn1-c1nc(-c2ccc(Cl)cc2)c(CCC(=O)NCCCl)o1
131 to 132	Cc1nccn1-c1nc(-c2ccc(Cl)cc2)c(CCCC(=O)NCCCl)o1
197 to 199	Cc1nccn1-c1nc(-c2ccc(Cl)cc2)c(CCCCCn2ccnc2)o1.Cl.Cl.O (hydrate or solvate)
71 to 72	COC(=O)CCc1oc(Cl)nc1-c1ccc(Cl)cc1 [Example 1, methyl 2-chloro-4-(4-chlorophenyl)-5-oxazolepropionate]
169 to 170	O=C(O)CCc1oc(Cl)nc1-c1ccc(Cl)cc1 [Example 2, 2-chloro-4-(4-chlorophenyl)-5-oxazolepropionic acid]
148 to 149	CCOc1nc(-c2ccc(Cl)cc2)c(CCC(=O)O)o1 [Example 3, 4-(4-chlorophenyl)-2-ethoxy-5-oxazolepropionic acid]
116 to 117	CC(C)Oc1nc(-c2ccc(Cl)cc2)c(CCC(=O)O)o1 [Example 4, 4-(4-chlorophenyl)-2-isopropoxy-5-oxazolepropionic acid]
136 to 137	O=C(O)CCc1oc(Oc2ccccc2)nc1-c1ccc(Cl)cc1 [Example 5, 4-(4-chlorophenyl)-2-phenoxy-5-oxazolepropionic acid]
183 to 184	CSc1nc(-c2ccc(Cl)cc2)c(CCC(=O)O)o1 [Example 6, 4-(4-chlorophenyl)-2-methylthio-5-oxazolepropionic acid]
132 to 133	CC(C)Sc1nc(-c2ccc(Cl)cc2)c(CCC(=O)O)o1 [Example 7, 4-(4-chlorophenyl)-2-isopropylthio-5-oxazolepropionic acid]
125 to 126	O=C(O)CCc1oc(SCc2ccccn2)nc1-c1ccc(Cl)cc1 [Example 8, 4-(4-chlorophenyl)-2-(2-pyridylmethylthio)-5-oxazolepropionic acid]
129 to 130	O=C(O)CCc1oc(SCc2cccnc2)nc1-c1ccc(Cl)cc1 [Example 9, 4-(4-chlorophenyl)-2-(3-pyridylmethylthio)-5-oxazolepropionic acid]
156 to 157	O=C(O)CCc1oc(Sc2ccccc2)nc1-c1ccc(Cl)cc1 [Example 10, 4-(4-chlorophenyl)-2-phenylthio-5-oxazolepropionic acid]
160 to 161	Cc1ccc(Sc2nc(-c3ccc(Cl)cc3)c(CCC(=O)O)o2)cc1 [Example 11, 4-(4-chlorophenyl)-2-(4-methylphenylthio)-5-oxazolepropionic acid]
217 to 218	CNc1nc(-c2ccc(Cl)cc2)c(CCC(=O)O)o1 [Example 16, 4-(4-chlorophenyl)-2-methylamino-5-oxazolepropionic acid]
180 to 181	O=C(O)CCc1oc(N2CCOCC2)nc1-c1ccc(Cl)cc1 [Example 18, 4-(4-chlorophenyl)-2-morpholino-5-oxazolepropionic acid]
194 to 195	O=C(O)CCc1oc(-n2ccnc2)nc1-c1ccc(Cl)cc1 [Example 24, 4-(4-chlorophenyl)-2-(1-imidazolyl)-5-oxazolepropionic acid]
174 to 175	CCCc1nccn1-c1nc(-c2ccc(Cl)cc2)c(CCC(=O)O)o1 [Example 30, 4-(4-chlorophenyl)-2-(2-propyl-1-imidazolyl)-5-oxazolepropionic acid]

melting point [°C]	Compound
215 to 216	Cc1nccn1-c1nc(-c2ccc(Cl)cc2)c(CCC(N)=O)o1 [Example 41, 4-(4-chlorophenyl)-2-(2-methyl-1-imidazolyl)-5-oxazolepropionamide]
119 to 120	Cc1nccn1-c1nc(-c2ccc(Cl)cc2)c(CCC2=NCCO2)o1 [Example 46, 4-(4-chlorophenyl)-2-(2-methyl-1-imidazolyl)-5-[2-(2-oxazolin-2-yl)ethyl]oxazole]
53 to 54	CCc1nccn1-c1nc(-c2ccc(Cl)cc2)c(CCC2=NCCO2)o1 [Example 50, 4-(4-chlorophenyl)-2-(2-ethyl-1-imidazolyl)-5-[2-(2-oxazolin-2-yl)ethyl]oxazole]
70 to 71	CCOC(=O)CCc1oc(-n2ccnc2C)nc1-c1ccc(Cl)cc1 [Example 52, ethyl 4-(4-chlorophenyl)-2-(2-methyl-1-imidazolyl)-5-oxazolepropionate]
114 to 115	OCCCc1oc(-n2ccnc2)nc1-c1ccc(Cl)cc1 [Example 57, 4-(4-chlorophenyl)-2-(1-imidazolyl)-5-oxazolepropanol]
73 to 74	Cc1nccn1-c1nc(-c2ccc(Cl)cc2)c(CCC2=NCCS2)o1 [Example 60, 4-(4-chlorophenyl)-2-(2-methyl-1-imidazolyl)-5-[2-(2-thiazolin-2-yl)ethyl]oxazole]
211 to 212	O=C(O)CCCc1oc(Cl)nc1-c1ccc(Cl)cc1 [Example 62, 2-chloro-4-(4-chlorophenyl)-5-oxazolebutyric acid]
72 to 73	CCOC(=O)CCCc1oc(-n2ccnc2C)nc1-c1ccc(Cl)cc1 [Example 64, ethyl 4-(4-chlorophenyl)-2-(2-methyl-1-imidazolyl)-5-oxazolebutyrate]
88 to 89	Cc1nccn1-c1nc(-c2ccc(Cl)cc2)c(CCCC2=NCCO2)o1 [Example 67, 4-(4-chlorophenyl)-2-(2-methyl-1-imidazolyl)-5-[3-(2-oxazolin-2-yl)propyl]oxazole]
116 to 117	CON(C)C(=O)CCc1oc(-n2ccnc2C)nc1-c1ccc(Cl)cc1 [Example 68, N-methoxy-N-methyl-4-(4-chlorophenyl)-2-(2-methyl-1-imidazolyl)-5-oxazolepropionamide]
109 to 110	Cc1nccn1-c1nc(-c2ccc(Cl)cc2)c(CCC=O)o1 [Example 69, 4-(4-chlorophenyl)-2-(2-methyl-1-imidazolyl)-5-oxazolepropionaldehyde]
110 to 111	Cc1nccn1-c1nc(-c2ccc(Cl)cc2)c(CCC2NCCS2)o1 (centres unmarked) [Example 70, 2-[2-[4-(4-chlorophenyl)-2-(2-methyl-1-imidazolyl)-5-oxazolyl]ethyl]thiazolidine]
97 to 98	Cc1nccn1-c1nc(-c2ccc(Cl)cc2)c(CCCOS(C)(=O)=O)o1 [Example 71, 3-[4-(4-chlorophenyl)-2-(2-methyl-1-imidazolyl)-5-oxazolyl]propyl methanesulfonate]
159 to 160	Cc1nccn1-c1nc(-c2ccc(Cl)cc2)c(CCO)o1 [Example 78, 4-(4-chlorophenyl)-2-(2-methyl-1-imidazolyl)-5-oxazolethanol]
93 to 94	CCOC(=O)CCCCc1oc(-n2ccnc2C)nc1-c1ccc(Cl)cc1 [Example 81, ethyl 4-(4-chlorophenyl)-2-(2-methyl-1-imidazolyl)-5-oxazolepentanoate]
70 to 71	Cc1nccn1-c1nc(-c2ccc(Cl)cc2)c(CCCCCCO)o1 [Example 84, 4-(4-chlorophenyl)-2-(2-methyl-1-imidazolyl)-5-oxazolehexanol]
74 to 75	Cc1nccn1-c1nc(-c2ccc(Cl)cc2)c(CCCCn2cncn2)o1 [Example 88, 1-[4-[4-(4-chlorophenyl)-2-(2-methyl-1-imidazolyl)-5-oxazolyl]butyl]1,2,4-triazole]
134 to 135	CCOC(=O)c1nccn1CCCCc1oc(-n2ccnc2C)nc1-c1ccc(Cl)cc1 [Example 92, ethyl 1-[4-[4-(4-chlorophenyl)-2-(2-methyl-1-imidazolyl)-5-oxazolyl]butyl]-2-imidazolecarboxylate]

Tested on: KKA^y mice
Test: Test for blood sugar depression in mice
Type: in vivo
Conditions: Mus musculus, 1 h; fasted male KKA^y mice, oral 30 mg/kg, 60 minutes after administration, compared with control group; read-out: Degree of Blood Glucose Depression (%) After 60 minutes
Experimental: After being fasted for 20 hours, 9- to 12-week-old, male KKA^y mice (five mice in each group) were orally given the test compound at a dose of 30 mg/kg/10 ml through a stomach tube. Control mice were orally given 5% gum arabic solution. Blood samples (70 μl) were obtained from orbital venous plexus through capillary tube before and 60 and 120 minutes after the administration of the test compound. Blood glucose was determined according to a glucose oxidase method using a commercial kit (Iatrochem, GIU(A), Iatron Labs. Inc.). Blood glucose level at 60 or 120 minutes of the test groups was compared with that of control group, and was shown as blood glucose depression (%) (Table 1).

Compound	inhibition in vivo at 30 mg/kg [%]
O=C(O)CCc1oc(Sc2ccccn2)nc1-c1ccc(Cl)cc1 [Example 15, 4-(4-chlorophenyl)-2-(2-pyridylthio)-5-oxazolepropionic acid]	22
Cc1nccn1-c1nc(-c2ccc(Cl)cc2)c(CCC(=O)O)o1 [Example 25, 4-(4-chlorophenyl)-2-(2-methyl-1-imidazolyl)-5-oxazolepropionic acid]	38
CCc1nccn1-c1nc(-c2ccc(Cl)cc2)c(CCC(=O)O)o1 [Example 26, 4-(4-chlorophenyl)-2-(2-ethyl-1-imidazolyl)-5-oxazolepropionic acid]	32
O=C(O)CCc1oc(-n2cccn2)nc1-c1ccc(Cl)cc1 [Example 28, 4-(4-chlorophenyl)-2-(1-pyrazolyl)-5-oxazolepropionic acid]	24
CC(C)c1nccn1-c1nc(-c2ccc(Cl)cc2)c(CCC(=O)O)o1 [Example 31, 4-(4-chlorophenyl)-2-(2-isopropyl-1-imidazolyl)-5-oxazolepropionic acid]	27
CSc1nccn1-c1nc(-c2ccc(Cl)cc2)c(CCC(=O)O)o1 [Example 32, 4-(4-chlorophenyl)-2-(2-methylthio-1-imidazolyl)-5-oxazolep ropionic acid]	25
O=C(O)CCc1oc(-n2cnc3ccccc32)nc1-c1ccc(Cl)cc1 [Example 34, 4-(4-chlorophenyl)-2-(1-benzimidazolyl)-5-oxazolepropionic acid]	27

Same assay, conditions: Mus musculus, 2 h; fasted male KKA^y mice, oral 30 mg/kg, 120 minutes after administration, compared with control group; read-out: Degree of Blood Glucose Depression (%) After 120 minutes

Compound	inhibition in vivo at 30 mg/kg [%]
O=C(O)CCc1oc(Sc2ccccn2)nc1-c1ccc(Cl)cc1 [Example 15, 4-(4-chlorophenyl)-2-(2-pyridylthio)-5-oxazolepropionic acid]	26
Cc1nccn1-c1nc(-c2ccc(Cl)cc2)c(CCC(=O)O)o1 [Example 25, 4-(4-chlorophenyl)-2-(2-methyl-1-imidazolyl)-5-oxazolepropionic acid]	27
CCc1nccn1-c1nc(-c2ccc(Cl)cc2)c(CCC(=O)O)o1 [Example 26, 4-(4-chlorophenyl)-2-(2-ethyl-1-imidazolyl)-5-oxazolepropionic acid]	27
O=C(O)CCc1oc(-n2cccn2)nc1-c1ccc(Cl)cc1 [Example 28, 4-(4-chlorophenyl)-2-(1-pyrazolyl)-5-oxazolepropionic acid]	33
CC(C)c1nccn1-c1nc(-c2ccc(Cl)cc2)c(CCC(=O)O)o1 [Example 31, 4-(4-chlorophenyl)-2-(2-isopropyl-1-imidazolyl)-5-oxazolepropionic acid]	28
CSc1nccn1-c1nc(-c2ccc(Cl)cc2)c(CCC(=O)O)o1 [Example 32, 4-(4-chlorophenyl)-2-(2-methylthio-1-imidazolyl)-5-oxazolep ropionic acid]	28
O=C(O)CCc1oc(-n2cnc3ccccc32)nc1-c1ccc(Cl)cc1 [Example 34, 4-(4-chlorophenyl)-2-(1-benzimidazolyl)-5-oxazolepropionic acid]	25
